The values that follow come from patent US20240350510A1, “METHODS AND COMPOSITIONS FOR REDUCING TOLERANCE TO OPIOID […] IBOGAINE AND DERIVATIVES THEREOF” (DemeRx, Inc., priority 2014, published 2024).

The data set is described as follows: Effect of ibogaine on QT interval in treated patients. It is filed as in vivo, human. To be noted: stated in words only, no values. An excerpt:
A prolonged QT interval is a marker of potential Torsades de Pointes, a serious arrhythmia that can result in death. For reasons that are not apparent, this prolongation increases in opioid addicted patients as compared to healthy individuals. […] It is expected that other compounds that share ibogaine's core structure will have a similar prolongation effect on QT interval. See, U.S. Provisional Patent Application No. 61/945,746 filed Feb. 27, 2014 entitled METHOD FOR ACUTE AND LONG-TERM TREATMENT OF DRUG ADDICTION, which application is incorporated by reference in its entirety.
The effect of ibogaine, ibogaine derivative, or a pharmaceutically acceptable salt and/or solvate thereof on QT interval is evaluated in substance-dependent participants in a randomized, placebo-controlled, double-blind trial. Patients are administered 60 mg or 120 mg of the compound and QT interval is measured.

As for `CCC1CC2CC3c4[nH]c5ccc(OC)cc5c4CCN(C2)C13` (stereo not shown) [ibogaine], the “prolongation of the treated patient's QT interval” value was “dose dependent prolongation”.
